The test system of series [1] is diabetic rats. The settings on record: cited from earlier work.
Series [2] is described as follows: Solubility determination in selected excipients (HPLC). In kind it is physicochemical. The settings on record: thermodynamic from solid. As for the experimental part: The vial contents were mixed for 30 seconds using a VWR mini vortexter followed by sonication (Branson 1510) for 1 minutes. Vials were placed into a constant temperature bath (i.e., about 25° C.) and allowed to equilibrate for no less than 12 hours. The resulting suspensions were transferred to eppendorf tubes each equipped with a 0.2 μm nylon filter (Costar 8168) and were centrifuged for 10 minutes at 14,000 rpms. The supernatant from each eppendorf tube was collected and diluted with HPLC grade acetonitrile or methonal with appropriate dilution factor. Each solution was analyzed by an HPLC method.
As an example, the following HPLC assay was used to determine the aqueous solubility of 1-[3-(4-bromo-2-methyl-2H-pyrazol-3-yl)-4-methoxy-phenyl]-3-(2,4-difluoro-phenyl)-urea:
HPLC System: Waters 2795; Stationary phase: Xterra® column, MS C18, 3.5 μm, 4.6×50 mm; Mobile phase: Line A: 100% De-ionized-Millipore water; Line B: 1.0% NH4OH; Line C: 100% HPLC grade Acetonitrile; Gradient: A: 80% to 0% in 8 minute; B: 10% constant in 8 minute; C: 10% to 90% in 8 minute; Flow rate: 1.50 mL/min; Column temperature: 40° C.±5° C.; Sample temperature: 25° C.±5° C.
Photodiode Array Detector: Waters 2996 with UV lamp: 3D data collection; Start wavelength: 210 nm; end wavelength: 320 nm.
Processing wavelength: 220 nm.
Quantification was effected by comparison of the HPLC peak area for each test solution with the peak area taken from a standard plot of concentration versus peak area for standards of known concentration. As is conventional, the standard concentrations for 1-[3-(4-bromo-2-methyl-2H-pyrazol-3-yl)-4-methoxy-phenyl]-3-(2,4-difluoro-phenyl)-urea were selected to fall within a linear range of concentration versus absorbance for the UV detector employed. The standard concentration for 1-[3-(4-bromo-2-methyl-2H-pyrazol-3-yl)-4-methoxy-phenyl]-3-(2,4-difluoro-phenyl)-urea was diluted in serial fashion to obtain a calibration curve. Dilution was effected by adding the acetonitrile from mobile phase. Each saturated equilibrium solution for 1-[3-(4-bromo-2-methyl-2H-pyrazol-3-yl)-4-methoxy-phenyl]-3-(2,4-difluoro-phenyl)-urea obtained after filtering the test vial solutions was diluted with acetonitrile or methonal with appropriate dilution factor to reach the linear range of the standard plot.

A short description of series [3]: Plasma pharmacokinetics in healthy male and female volunteers following oral administration of a capsule formulated dose. In kind it is in vivo. The settings on record: both sexes, human, capsule with Cremephor RH40. As for the experimental part: Plasma pharmacokinetics for 1-[3-(4-bromo-2-methyl-2H-pyrazol-3-yl)-4-methoxy-phenyl]-3-(2,4-difluoro-phenyl)-urea were determined in healthy male and female volunteers following oral administration of a capsule formulated dose of 1-[3-(4-bromo-2-methyl-2H-pyrazol-3-yl)-4-methoxy-phenyl]-3-(2,4-difluoro-phenyl)-urea and Cremephor RH40.

Series [4] concerns the target 5-HT2A serotonin receptor (Homo sapiens, UniProt P28223). The conditions noted are these: cited from earlier work.
The conditions of series [5]: patients, 24 months of treatment; cited from earlier work.
For series [6] the following is noted: glaucoma patients; cited from earlier work.
Series [7] relates to JC virus. The settings on record: cited from earlier work.
For series [8], the target named is 5-HT2A (Homo sapiens, UniProt P28223). The settings on record: cited from earlier work.
Sequence of 5-HT2A (P28223 whole entry): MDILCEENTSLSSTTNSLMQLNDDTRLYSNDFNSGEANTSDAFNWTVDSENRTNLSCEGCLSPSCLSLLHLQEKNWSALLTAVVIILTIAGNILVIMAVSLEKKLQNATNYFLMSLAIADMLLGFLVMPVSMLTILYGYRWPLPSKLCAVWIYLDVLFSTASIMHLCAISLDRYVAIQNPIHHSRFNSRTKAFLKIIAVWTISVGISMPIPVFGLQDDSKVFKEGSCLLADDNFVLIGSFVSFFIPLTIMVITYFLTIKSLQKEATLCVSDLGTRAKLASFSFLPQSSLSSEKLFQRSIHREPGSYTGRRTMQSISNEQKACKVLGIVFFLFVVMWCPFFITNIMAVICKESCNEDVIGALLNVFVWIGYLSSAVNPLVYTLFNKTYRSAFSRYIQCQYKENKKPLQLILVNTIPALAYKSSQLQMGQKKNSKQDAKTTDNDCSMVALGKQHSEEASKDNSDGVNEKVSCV

What is called solubility is how much of the substance goes into solution per volume. The AUC(0-inf) is total exposure, with the tail of the curve extrapolated. What is called Cmax is the peak of the concentration-time curve. One may read the Tmax as the time from dosing to the highest level.

Values after ≈ are worked out from the molar mass of the structure shown. Like-named read-outs stand apart in the source and are kept apart here.

Sequence of 5-HT2A serotonin receptor (P28223 whole entry): as above

For `O=CN1CCC(C(=O)NCCN2CCC(=C3c4ccccc4C=Cc4ccccc43)CC2)CC1` [AT-1015], in series [1], the “14.9% reduction in saphenous sensory conduction velocity” value (“14.9% reduction” for short) was “completely reversed” and the “44.7% reduction in sciatic endoneurial blood flow” value (from here on “44.7% reduction”) was “completely reversed”.
`COc1ccc(NC(=O)Nc2ccc(F)cc2F)cc1-c1c(Br)cnn1C` [1-[3-(4-bromo-2-methyl-2H-pyrazol-3-yl)-4-methoxy-phenyl]-3-(2,4-difluoro-phenyl)-urea]: the solubility in series [2] (0.01 N HCl, 25 °C, pH 2, simulated gastric fluid, 0.01 N HCl (about pH 2), read-out: aqueous solubility) is at most 0.01 mg/mL; in series [2] (0.01 N HCl, 25 °C, pH 2, simulated gastric fluid, at 25° C. in 0.01 N HCl (pH 2), read-out: Solubility), below 0.01 mg/mL; in series [2] (25 mM phosphate buffer, 25 °C, pH 7, aqueous buffer, at 25° C. in 25 mM Phosphate buffer (pH 7), read-out: Solubility), below 0.01 mg/mL; in series [2] (0.05% Tween 80 & 0.5% Methocel, 25 °C, aqueous with cosolvent or surfactant or cyclodextrin, at 25° C. in 0.05% Tween 80 & 0.5% Methocel, read-out: Solubility) it was below 0.01 mg/mL; in series [2] (1% Tween 80, 25 °C, aqueous with cosolvent or surfactant or cyclodextrin, at 25° C. in 1% Tween 80, read-out: Solubility), 0.4 mg/mL (≈ 0.915 mM); in series [2] (5% Gum Arabic, 25 °C, aqueous with cosolvent or surfactant or cyclodextrin, at 25° C. in 5% Gum Arabic, read-out: Solubility), below 0.01 mg/mL. In addition, the solubility in series [2] (50% Captisol, 25 °C, aqueous with cosolvent or surfactant or cyclodextrin, at 25° C. in 50% Captisol, read-out: Solubility) is 0.4 mg/mL (≈ 0.915 mM); in series [2] (Cremophor RH 40, 25 °C, organic solvent or mixture, at 25° C. in Cremophor RH 40, read-out: Solubility), 196 mg/mL (≈ 448 mM); in series [2] (Labrafil M 1944 CS, 25 °C, oil or lipid, at 25° C. in Labrafil M 1944 CS, read-out: Solubility) it was 29.9 mg/mL (≈ 68.4 mM); in series [2] (Labrafil M 2125 CS, 25 °C, oil or lipid, at 25° C. in Labrafil M 2125 CS, read-out: Solubility), 32.7 mg/mL (≈ 74.8 mM); in series [2] (Labrasol, 25 °C, oil or lipid, at 25° C. in Labrasol, read-out: Solubility), 348 mg/mL (≈ 796 mM); in series [2] (PEG 300, 25 °C, organic solvent or mixture, at 25° C. in PEG 300, no suspension observed, read-out: Solubility), above 150 mg/mL. The solubility was 377 mg/mL (≈ 861 mM) in series [2] (PEG 400, 25 °C, organic solvent or mixture, at 25° C. in PEG 400, read-out: Solubility); above 325 mg/mL in series [2] (PEG 600, 25 °C, organic solvent or mixture, at 25° C. in PEG 600, no suspension observed, read-out: Solubility); above 200 mg/mL in series [2] (Softigen 767, 25 °C, oil or lipid, at 25° C. in Softigen 767, no suspension observed, read-out: Solubility); above 200 mg/mL in series [2] (Transcutol P, 25 °C, organic solvent or mixture, at 25° C. in Transcutol P, no suspension observed, read-out: Solubility); above 160 mg/mL in series [2] (Tween 20, 25 °C, organic solvent or mixture, at 25° C. in Tween 20, no suspension observed, read-out: Solubility); 320 mg/mL (≈ 732 mM) in series [2] (Tween 80, 25 °C, organic solvent or mixture, at 25° C. in Tween 80, read-out: Solubility). The solubility in series [2] (deionized water, 25 °C, water, at 25° C. in Deionized water, read-out: Solubility) is below 0.01 mg/mL; in series [2] (deionized water, 25 °C, water, deionized water, read-out: aqueous solubility), at most 0.01 mg/mL; in series [2] (phosphate buffer, 25 °C, pH 7, aqueous buffer, phosphate buffer (about pH 7), read-out: aqueous solubility) it was at most 0.01 mg/mL; in series [2] (saline (0.9% NaCl solution), 25 °C, saline or isotonic, at 25° C. in Saline (0.9% NaCl solution), read-out: Solubility), below 0.01 mg/mL; in series [2] (saline (about 0.9% NaCl solution), 25 °C, saline or isotonic, saline (about 0.9% NaCl solution), read-out: aqueous solubility), at most 0.01 mg/mL. In addition, the AUC(0-inf) in series [3] (single oral dose 10 mg) was 51 ng·h/mL; in series [3] (single oral dose 20 mg) it was 181 ng·h/mL; in series [3] (single oral dose 40 mg), 395 ng·h/mL; in series [3] (single oral dose 80 mg), 612 ng·h/mL; in series [3] (single oral dose 160 mg) it was 739 ng·h/mL. The Cmax was 18 ng/mL in series [3] (single oral dose 10 mg); 58 ng/mL in series [3] (single oral dose 20 mg); 113 ng/mL in series [3] (single oral dose 40 mg); 118 ng/mL in series [3] (single oral dose 80 mg); 125 ng/mL in series [3] (single oral dose 160 mg). Further, the Tmax worked out at 1.2 h in series [3] (single oral dose 10 mg); 1.2 h in series [3] (single oral dose 20 mg); 1.5 h in series [3] (single oral dose 40 mg); 1.2 h in series [3] (single oral dose 80 mg); 1.5 h in series [3] (single oral dose 160 mg). The “effectiveness as a modulator of the 5-HT2A serotonin receptor” value in series [4] is given as “especially effective as a modulator of the 5-HT2A serotonin receptor”.
For `COc1cccc(CCc2ccccc2OCC(CN(C)C)OC(=O)CCC(=O)O)c1` (stereo not drawn) [sarpogrelate], in series [1], the “14.9% reduction” value is “completely reversed” and the “44.7% reduction” value was “completely reversed”. For the same molecule, the “urinary albumin excretion level” value in series [5] is listed as “significantly reduced”. Besides, the IOP entry in series [6] was “significantly lower IOP”.
Take `O=C(c1ccc(F)cc1)C1CCN(CCn2c(=O)[nH]c3ccccc3c2=O)CC1` [ketanserin]: in series [7], the “JC virus infection of human glial cells” value was “inhibited JC virus infection”. In addition, the “inverse agonist activity at 5-HT2A” value in series [8] was “have inverse agonist activity”.
Regarding `Cc1nc2sccn2c(=O)c1CCN1CCC(=C(c2ccc(F)cc2)c2ccc(F)cc2)CC1` [ritanserin], in series [1], the “14.9% reduction” value is given as “completely reversed” and the “44.7% reduction” value is “completely reversed”. For the same molecule, in series [7], the “JC virus infection of human glial cells” value is “inhibited JC virus infection”. Besides, in series [8], the “inverse agonist activity at 5-HT2A” value is “have inverse agonist activity”.

The record behind these values is patent publication US20090053306A1, “Pharmaceutical Compositions of a 5-HT2A Serotonin Receptor Modulator Useful for the Treatment of Disorders Related Thereto” (priority 2005, published 2009).
